From US20110015226A1, “Treatment of Energy Utilization Disease” (SUMMIT CORPORATION PLC, priority 2008, published 2011)

Experiments:
Assay type in all cases: biochemical
[1] = molecular target: α-D-glucosidase (Bacillus) (Geobacillus stearothermophilus, UniProt A0ACH1E9U3); assay: Glycosidase inhibition: α-D-glucosidase (Bacillus); conditions: compounds tested at 0.8 mM
Description: (§1) The results tabulated below were obtained using commercially available glycosidases and p-nitrophenyl-substrates using standard methods described for example by Watson et al (1997) Phytochemistry 46 255-259. All enzymes and substrates were bought from Sigma. Enzyme and substrate solutions were made using sodium phosphate buffers at the pH optima values. The enzymes used were α-D-glucosidase Saccharomyces cerevisiae, Bacillus stearothermophilus, Oryzae sativa), β-D-glucosidase (Almond), α-D-mannosidase (Jack bean), α-D-galactosidase (Green coffee beans), β-D-galactosidase (Bovine liver), α-L-fucosidase (Bovine kidney), N-acetyl-β-D-glucosaminidase (Bovine kidney, Jack bean, Aspergillus oryzae), Naringinase (Penicillium decumbens) and amyloglucosidase (Aspergillus niger). All enzymes were used with the appropriate p-nitrophenyl substrates (5 mM). Amyloglucosidase activity was measured using amylopectin (0.1%) (Merck) mixed with sodium phosphate buffer, pH 4.5 in a glass bottle, and healed in a boiling water bath for 20 minutes to dissolve with released glucose measured using ‘Trinder’ glucose detection solution (Sigma).
(§2) All enzymes and para-nitrophenyl substrates were purchased from Sigma, with the exception of beta-mannosidase which came from Megazyme. Enzymes were assayed at 27° C. in 0.1M citric acid/0.2M disodium hydrogen phosphate buffers at the optimum pH for the enzyme. The incubation mixture consisted of 10 μl enzyme solution, 10 μl of 1 mg/ml aqueous solution of extract and 50 μl of the appropriate 5 mM para-nitrophenyl substrate made up in buffer at the optimum pH for the enzyme. The reactions were stopped by addition of 70 μl 0.4M glycine (pH 10.4) during the exponential phase of the reaction, which had been determined at the beginning using uninhibited assays in which water replaced inhibitor. Final absorbances were read at 405 nm using a Versamax microplate reader (Molecular Devices). Assays were carried out in triplicate, and the values given are means of the three replicates per assay. (See Watson, A. A., Nash, R. J., Wormald, M. R., Harvey, D. J., Dealler, S., Lees, E., Asano, N., Kizu, H., Kato, A., Griffiths, R. C., Cairns, A. J. and Fleet, G. W. J. (1997). Glycosidase-inhibiting pyrrolidine alkaloids from Hyacinthoides non-scripta. Phytochemistry 46 (2): 255-259.)

[2] = tested on: β-D-galactosidase Bovine liver; assay: Glycosidase inhibition: β-D-galactosidase Bovine liver; conditions: compounds tested at 0.8 mM
Description: as §1, §2

[3] = molecular target: T1, α-L-fucosidase Bovine kidney (Bos taurus, UniProt Q2KIM0); assay: Glycosidase inhibition: α-L-fucosidase Bovine kidney; conditions: compounds tested at 0.8 mM
T1 construct: α-L-fucosidase (Bovine kidney); purchased Sigma; host or cells: bovine kidney
T1 sequence (Q2KIM0 23-468): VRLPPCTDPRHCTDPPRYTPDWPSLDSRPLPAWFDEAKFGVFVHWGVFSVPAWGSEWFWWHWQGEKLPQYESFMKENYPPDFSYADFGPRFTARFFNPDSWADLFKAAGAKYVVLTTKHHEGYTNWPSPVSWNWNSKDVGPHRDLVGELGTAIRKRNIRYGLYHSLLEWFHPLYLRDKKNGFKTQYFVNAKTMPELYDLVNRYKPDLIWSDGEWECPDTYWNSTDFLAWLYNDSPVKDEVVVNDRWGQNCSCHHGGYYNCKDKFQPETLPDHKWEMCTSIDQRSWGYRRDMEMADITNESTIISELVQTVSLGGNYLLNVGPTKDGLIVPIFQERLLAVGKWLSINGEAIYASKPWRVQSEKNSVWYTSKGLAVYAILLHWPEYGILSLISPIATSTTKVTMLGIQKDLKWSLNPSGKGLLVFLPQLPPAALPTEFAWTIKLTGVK

[4] = molecular target: rabbit intestinal maltase; assay: Rabbit disaccharidase inhibition assay: maltase; conditions: NI: no inhibition at 0.8 mM
Protocol: (§3) Sucrose (8.3 mM), maltose (5 mM) and isomaltose (6.3 mM) substrates were made using 0.2 M Macllvaine (citrate-phosphate) buffer, pH 6.0. The glucose detection reagent was prepared according to the supplier's instructions (Megazyme Ltd). Linearity of the timecourse of the reaction between the glucose detection reagent and glucose was tested using a series of glucose dilutions.
(§4) The method for preparation of mammalian small intestine mucosal disaccharidases was based on Griffiths (1998), omitting ammonium sulphate fractionation steps. The small intestine was dissected out of a female wild rabbit, and opened longitudinally using a scalpel. The mucosal layer was scraped off using the edge of a clean microscope slide, and placed into 3 ml of dH2O. The mucosal layer suspension was centrifuged at around 1000 rpm for 30 seconds to sediment tissue debris. The supernatant ([…]) was removed, and centrifuged again at 3500 rcf for 1 minute to remove fine particulates from suspension. The supernatant was diluted to give 0.2-0.25 mg/ml protein and stored at −30° C.
(§5) Enzyme assays were carried out using 5-15 μl of enzyme preparation, 5 μl of test compound (or dH2O for controls) and 15-25 μl of substrate solution. Reactions were covered using a sheet of plate sealing film, and incubated at 37° C. for 60 minutes. Glucose (from disaccharide hydrolysis) was quantified by adding 200 μl of glucose detection reagent and incubating the reactions for a further twenty-five minutes. Absorbance was measured at 510 nm against control blanks.

[5] = molecular target: T2, rabbit intestinal isomaltase (Oryctolagus cuniculus, UniProt P07768); assay: Rabbit disaccharidase inhibition assay: isomaltase; conditions: NI: no inhibition at 0.8 mM
T2 construct: The small intestine was dissected out of a female wild rabbit; from tissue; host or cells: small-intestinal mucosa of a female wild rabbit
T2 sequence (P07768 whole entry): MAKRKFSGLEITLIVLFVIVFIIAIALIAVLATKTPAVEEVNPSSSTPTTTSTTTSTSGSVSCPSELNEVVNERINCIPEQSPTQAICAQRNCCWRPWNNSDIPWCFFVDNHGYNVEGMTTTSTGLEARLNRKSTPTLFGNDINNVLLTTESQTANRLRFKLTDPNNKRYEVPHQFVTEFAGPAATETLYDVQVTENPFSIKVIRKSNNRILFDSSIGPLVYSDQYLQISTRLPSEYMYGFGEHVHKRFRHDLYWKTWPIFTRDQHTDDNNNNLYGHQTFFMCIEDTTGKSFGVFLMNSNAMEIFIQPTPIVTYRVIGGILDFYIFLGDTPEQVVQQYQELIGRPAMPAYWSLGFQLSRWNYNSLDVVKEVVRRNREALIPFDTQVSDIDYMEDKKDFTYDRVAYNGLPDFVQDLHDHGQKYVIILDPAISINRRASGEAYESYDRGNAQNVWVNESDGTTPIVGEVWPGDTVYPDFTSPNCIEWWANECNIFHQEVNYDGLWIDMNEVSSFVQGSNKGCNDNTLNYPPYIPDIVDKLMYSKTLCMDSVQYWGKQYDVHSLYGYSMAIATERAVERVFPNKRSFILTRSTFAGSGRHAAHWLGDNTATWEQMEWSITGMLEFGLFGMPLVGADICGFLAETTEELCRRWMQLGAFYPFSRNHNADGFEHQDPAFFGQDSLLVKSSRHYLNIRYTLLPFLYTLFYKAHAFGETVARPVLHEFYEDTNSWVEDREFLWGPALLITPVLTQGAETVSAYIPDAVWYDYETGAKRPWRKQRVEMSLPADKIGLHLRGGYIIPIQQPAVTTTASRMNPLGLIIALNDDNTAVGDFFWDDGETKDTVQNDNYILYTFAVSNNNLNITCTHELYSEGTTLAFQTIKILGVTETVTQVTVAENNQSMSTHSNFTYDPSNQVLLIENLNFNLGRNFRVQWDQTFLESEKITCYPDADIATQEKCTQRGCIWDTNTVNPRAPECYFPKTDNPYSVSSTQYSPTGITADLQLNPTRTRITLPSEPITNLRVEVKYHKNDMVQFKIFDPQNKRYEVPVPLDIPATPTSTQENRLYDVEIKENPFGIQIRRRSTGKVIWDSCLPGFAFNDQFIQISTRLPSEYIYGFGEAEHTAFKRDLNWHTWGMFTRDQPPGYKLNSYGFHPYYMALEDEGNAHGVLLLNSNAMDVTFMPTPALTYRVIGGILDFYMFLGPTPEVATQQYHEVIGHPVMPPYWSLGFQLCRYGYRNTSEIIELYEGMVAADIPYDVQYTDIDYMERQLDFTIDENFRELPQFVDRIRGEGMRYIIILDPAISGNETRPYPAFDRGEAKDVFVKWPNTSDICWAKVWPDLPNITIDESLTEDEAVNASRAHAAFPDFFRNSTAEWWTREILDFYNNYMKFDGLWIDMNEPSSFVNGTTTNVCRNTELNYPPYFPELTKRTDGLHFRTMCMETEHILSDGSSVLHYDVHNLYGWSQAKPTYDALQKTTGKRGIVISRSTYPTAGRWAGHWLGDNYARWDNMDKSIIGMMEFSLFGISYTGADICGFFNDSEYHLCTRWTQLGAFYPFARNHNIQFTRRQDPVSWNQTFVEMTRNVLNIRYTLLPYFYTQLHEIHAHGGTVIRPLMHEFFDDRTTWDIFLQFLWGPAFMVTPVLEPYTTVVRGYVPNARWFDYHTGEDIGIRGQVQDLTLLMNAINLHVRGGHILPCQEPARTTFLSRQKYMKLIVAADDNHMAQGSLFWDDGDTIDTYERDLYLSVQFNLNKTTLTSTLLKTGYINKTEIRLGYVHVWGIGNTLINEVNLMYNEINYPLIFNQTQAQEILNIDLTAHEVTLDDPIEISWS
Protocol: as §3, §4, §5

[6] = tested on: rabbit digestive disaccharidases; assay: Rabbit digestive disaccharidases (summary statement); conditions: at 0.8 mM
Protocol: as §3, §4, §5

α-D-glucosidase (Bacillus), sequence (A0ACH1E9U3 entry or part of it): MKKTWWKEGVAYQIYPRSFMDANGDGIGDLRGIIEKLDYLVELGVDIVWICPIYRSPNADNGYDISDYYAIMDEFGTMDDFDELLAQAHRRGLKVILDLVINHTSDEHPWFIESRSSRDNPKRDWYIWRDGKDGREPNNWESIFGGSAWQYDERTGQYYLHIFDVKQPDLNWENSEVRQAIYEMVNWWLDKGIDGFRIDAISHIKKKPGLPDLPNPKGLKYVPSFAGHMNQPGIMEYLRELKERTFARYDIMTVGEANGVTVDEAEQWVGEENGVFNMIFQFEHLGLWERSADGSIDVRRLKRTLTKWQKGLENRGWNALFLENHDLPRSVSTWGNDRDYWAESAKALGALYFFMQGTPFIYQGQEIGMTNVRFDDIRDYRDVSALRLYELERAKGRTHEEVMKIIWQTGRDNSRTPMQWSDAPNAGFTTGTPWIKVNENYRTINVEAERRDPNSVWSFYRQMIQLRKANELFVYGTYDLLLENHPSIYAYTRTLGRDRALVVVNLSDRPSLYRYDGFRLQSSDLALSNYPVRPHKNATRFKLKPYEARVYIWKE

Compound	inhibition at 800 µM [1]	% inhibition, β-D-galactosidase Bovine liver [2]	inhibition at 800 µM [3]	IC50 [4]	IC50 [5]	inhibition of the disaccharidases [6]	maltase IC50 (uM) [4]
O=C(O)[C@H]1NC[C@H](O)[C@@H](O)[C@@H]1O [Compound G2, 2S,3R,4R,5S-trihydroxypiperidine-2-carboxylic acid]	49%	NI (NI = no inhibition)	< 10%	> 800 µM	> 800 µM	no inhibition	
O=C(O)CN1[C@H](CO)[C@@H](O)[C@H](O)[C@H]1CO [Compound S2, 2-((2R,3R,4R,5R)-3,4-Dihydroxy-2,5-bis(hydroxymethyl)pyrrolidin-1-yl)acetic acid]	92.7%	60%	< 50%	> 800 µM		no inhibition	
O=C(O)CCN1C[C@H](O)[C@@H](O)[C@H](O)[C@H]1CO [Compound T1]	< 50%		< 50%	19 µM			very weak inhibition
CCCCOC(=O)[C@@H]1[C@@H](O)[C@H](O)[C@@H](O)CN1CCCC [Compound T2, (2S,3R,4R,5S)-Butyl 1-butyl-3,4,5-trihydroxypiperidine-2-carboxylate]	< 50%		< 50%	> 800 µM	> 800 µM	no inhibition	
OC[C@H]1NC[C@H](O)[C@@H](O)[C@@H]1O [DNJ, 1-deoxynojirimycin, reference compound]	100%	NI (NI = no inhibition)	< 10%	0.18 µM	0.02 µM		
